# Assay results taken from the supplement of paper PMC10307832.
# Compound: CCn1c(-c2nonc2N)nc2c(C#CC(C)(C)O)ncc(OC[C@H]3CCCNC3)c21 + COc1cccc2cc(-c3nc([C@H]4CC[C@H](C(=O)O)CC4)n4ncnc(N)c34)[nH]c12 [OSI-027] (partner 0.5 µM)
# Experiment: relative viability (nuclei count vs DMSO), 5 days (fraction); higher = more cells survive
# Settings: first compound 0.01 µM
# Method in brief: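 One day after seeding in 1536-well plates, lung cancer cell lines were dosed by pin tool. Dosing was either single-drug or a fixed anchor-drug dose plus five library-drug doses (not always all listed) in √10 steps. After 5 days, nuclei were stained in one fix-and-stain step and counted on 4× images, and relative viability is the nuclei count of treated wells over that of vehicle wells, given as the median of duplicate plates.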
row,Cell Line,relative viability
1,H3255,0.683
2,COR-L23,0.839
3,COR-L 105,0.664
4,LOU-NH91,0.718
5,ChaGo-K-1,0.556
6,NCI-H2170,0.733
7,NCI-H2405,0.646
8,HOP-62,0.834
9,SW 900,0.452
10,LU99A,0.284
11,BEN,0.311
12,HARA,0.5
13,HCC-78,0.405
14,NCI-H322M,0.479
15,NCI-H441,0.675
16,NCI-H1395,0.496
17,NCI-H1793,0.279

# Same assay, conditions: first compound 0.03162 µM
row,Cell Line,relative viability
1,NCI-H522,0.691
2,NCI-H1623,0.423
3,NCI-H727,0.58
4,NCI-H1650,0.625
5,NCI-H1993,0.537
6,SW 1573,0.559
7,NCI-H838,0.406
8,LCLC-103H,0.477
9,NCI-H520,0.266
10,NCI-H2126,0.69
11,EMC-BAC-2,0.379
12,NCI-H2085,0.895
13,HCC-366,0.834
14,NCI-H1666,0.777
15,NCI-H596,0.789
16,LK-2,0.212
17,NCI-H2087,0.522
18,NCI-H2342,0.617
19,SK-MES-1,0.598

row,Cell Line,relative viability
1,H3255,0.658
2,COR-L23,0.698
3,COR-L 105,0.802
4,LOU-NH91,0.694
5,ChaGo-K-1,0.561
6,NCI-H2170,0.715
7,NCI-H2405,0.647
8,HOP-62,0.748
9,SW 900,0.321
10,LU99A,0.298
11,BEN,0.302
12,HARA,0.575
13,NCI-H1648,0.271
14,HCC-78,0.386
15,NCI-H322M,0.496
16,NCI-H441,0.67
17,NCI-H1395,0.597
18,NCI-H1793,0.29

# Same assay, conditions: first compound 0.1 µM
row,Cell Line,relative viability
1,NCI-H522,0.741
2,NCI-H1623,0.485
3,NCI-H727,0.535
4,NCI-H1650,0.508
5,NCI-H1993,0.525
6,SW 1573,0.514
7,NCI-H838,0.367
8,LCLC-103H,0.481
9,NCI-H520,0.208
10,NCI-H2126,0.675
11,EMC-BAC-2,0.354
12,NCI-H2085,0.806
13,HCC-366,0.45
14,NCI-H1666,0.835
15,NCI-H596,0.663
16,LK-2,0.179
17,NCI-H2087,0.652
18,NCI-H2342,0.517
19,SK-MES-1,0.552

row,Cell Line,relative viability
1,H3255,0.607
2,COR-L23,0.687
3,COR-L 105,0.59
4,LOU-NH91,0.706
5,ChaGo-K-1,0.504
6,NCI-H2170,0.766
7,NCI-H2405,0.597
8,HOP-62,0.695
9,HCC-44,0.484
10,SW 900,0.507
11,LU99A,0.283
12,BEN,0.224
13,HARA,0.368
14,NCI-H1648,0.278
15,HCC-78,0.325
16,NCI-H322M,0.45
17,NCI-H441,0.466
18,NCI-H1395,0.552
19,NCI-H1793,0.232

# Same assay, conditions: first compound 0.3162 µM
row,Cell Line,relative viability
1,NCI-H522,0.634
2,NCI-H1623,0.438
3,NCI-H727,0.551
4,NCI-H1650,0.421
5,NCI-H1993,0.546
6,SW 1573,0.34
7,NCI-H838,0.401
8,LCLC-103H,0.425
9,NCI-H520,0.183
10,NCI-H2126,0.624
11,EMC-BAC-2,0.369
12,NCI-H2085,0.72
13,HCC-366,1
14,NCI-H1666,0.693
15,NCI-H596,0.668
16,LK-2,0.218
17,NCI-H2087,0.477
18,NCI-H2342,0.546
19,SK-MES-1,0.531

row,Cell Line,relative viability
1,H3255,0.539
2,COR-L23,0.478
3,COR-L 105,0.52
4,LOU-NH91,0.625
5,ChaGo-K-1,0.518
6,NCI-H2170,0.66
7,NCI-H2405,0.612
8,HOP-62,0.769
9,HCC-44,0.372
10,SW 900,0.435
11,LU99A,0.267
12,BEN,0.275
13,HARA,0.472
14,NCI-H1648,0.265
15,HCC-78,0.331
16,NCI-H322M,0.42
17,NCI-H441,0.469
18,NCI-H1395,0.556
19,NCI-H1793,0.251

# Same assay, conditions: first compound 1 µM
row,Cell Line,relative viability
1,NCI-H522,0.748
2,NCI-H1623,0.395
3,NCI-H727,0.528
4,NCI-H1650,0.359
5,NCI-H1993,0.549
6,SW 1573,0.27
7,NCI-H838,0.428
8,LCLC-103H,0.356
9,NCI-H520,0.173
10,NCI-H2126,0.677
11,EMC-BAC-2,0.336
12,NCI-H2085,0.656
13,HCC-366,0.838
14,NCI-H1666,0.722
15,NCI-H596,0.645
16,LK-2,0.173
17,NCI-H2087,0.467
18,NCI-H2342,0.594
19,SK-MES-1,0.609
20,H3255,0.528
21,COR-L23,0.384
22,COR-L 105,0.499
23,LOU-NH91,0.594
24,ChaGo-K-1,0.6
25,NCI-H2170,0.679
26,NCI-H2405,0.612
